Laboratory results as given in US8822532B2, “Bis[thiohydrazide amide] compounds for treating leukemia” (Synta Pharmaceuticals Corp., priority 2009, dated 2014).

Tests used:
[1] = system: AML patient blast cells; assay: Flow cytometry (MMP, ROS, GSH, membrane integrity) of primary AML patient blasts treated ex vivo; assay type: cell-based, human
Experimental: • Cell lines: OCI-AML2, OCI-AML5, OCI-M2 (p53 mutant M6), MV4-11 (FLT3-ITD) • Patients were treated by the Princess Margaret Hospital Leukemia Program. • Primary blasts from 10 AML patients isolated by density gradient or RBC lysis, maintained in a-MEM+10% FBS±10% 5637-conditioned medium. Flow Cytometry Protocol: • Combined staining at 37° for: • MMP—DiIC1(5) 40 nM 30′ • ROS—carboxy-dichlorofluorescin […] or dihydrorhodamine 123 […] for 30′ • GSH—monobromobimane […] for 5′ • Surface membrane integrity—propidium iodide […] for 5′ • Samples run on 3 laser flow cytometer (Gallios, Beckman-Coulter)

[2] = system: metastatic melanoma; settings: cited from earlier work

Structure (SMILES) | mitochondrial dysfunction and cell death ([1]; ex vivo treatment of primary blast cells from patients with AML) | primary endpoint, difference between the two arms ([2]; elevated LDH population) | survival endpoint ([2]; elevated LDH population) | progression-free survival improvement (primary endpoint) ([2]; normal LDH population) | safety profile ([2]; normal LDH population) | ROS ([1]; Patient #123 blasts, 100nM, 6 hr, FIG. 3a) | loss of mitochondrial membrane potential versus outer membrane integrity (dual MMP/PI plots) ([1]; Patient #123 blasts, FIG. 3a) | reduced GSH ([1]; Patient #123 blasts, FIG. 3a) | sensitivity of primary patient blasts compared with AML cell lines ([1]; Patient #123 blasts, FIG. 3a) | sensitivity of blasts ([1]; Patient #126 blasts, FIG. 3d) | GSH ([1]; Patient #127 blasts, 30 nM, already evident at 6 hr, FIG. 3b) | sensitivity of blasts ([1]; Patient #131 blasts (higher baseline GSH), FIG. 3c) | GSH and MMP ([1]; Patient #131 blasts, FIG. 3c) | ROS ([1]; Patient #131 blasts, most evident at 30 nM 24 hr, FIG. 3c) | depletion of GSH and dissipation of mitochondrial membrane potential ([1]; all cases) | impairment of primary blasts ([1]; all samples, 30 nM)
CN(NC(=O)CC(=O)NN(C)C(=S)c1ccccc1)C(=S)c1ccccc1 [elesclomol, N-malonyl-bis(N′-methyl-N′-thiobenzoylhydrazide)] | rapidly induced mitochondrial dysfunction and cell death | no difference was observed | negative impact | achieved | acceptable safety profile |  |  |  |  |  |  |  |  |  |  | 
CN1C(c2ccccc2)=[SH][Cu]23[SH]=C(c4ccccc4)N(C)[N]2C(=O)CC(=O)[N]13 [elesclomol-Cu(II)] |  |  |  |  |  | slight increase in ROS | loss of mitochondrial membrane potential precedes the loss of outer membrane integrity | lost co-incident with the loss of MMP | more drug-sensitive | highly sensitive | loss of GSH | less sensitive | loss of GSH co-incident with loss of MMP | increased ROS | occurred in all cases | significant impairment
